From ChEMBL document CHEMBL1151757, “Synthesis, radiosynthesis, and biological evaluation of fluorine-18-labeled 2beta-carbo(fluoroalkoxy)-3beta-(3'-((Z)-2-haloethenyl)phenyl)nortropanes: candidate radioligands for in vivo imaging of the serotonin transporter with positron emission tomography” (J Med Chem, 2008)

Experiments:
[1] = Ratio of drug uptake in pons to cerebellum in anesthetized cynomolgus monkey after 165 mins postinjection; format: ADME, organism-based, Macaca fascicularis; conditions: in vivo, 2.75 h
[2] = Ratio of drug uptake in pons to cerebellum in anesthetized cynomolgus monkey after 205 mins postinjection; format: ADME, organism-based, Macaca fascicularis; conditions: in vivo
[3] = Ratio of drug uptake in medulla to cerebellum in anesthetized cynomolgus monkey after 235 mins postinjection; format: ADME, organism-based, Macaca fascicularis; conditions: in vivo
[4] = Drug uptake in awake rhesus monkey occipital lobe after 65 mins postinjection; format: ADME, organism-based, Macaca mulatta; conditions: in vivo
[5] = Ratio of drug uptake in thalamus to cerebellum in awake rhesus monkey after 2.8 mins postinjection; format: ADME, organism-based, Macaca mulatta; conditions: in vivo, 168 s
[6] = Ratio of drug uptake in pons to cerebellum in awake rhesus monkey after 0.3 mins postinjection; format: ADME, organism-based, Macaca mulatta; conditions: in vivo, 0.005 h
[7] = Ratio of drug uptake in pons to cerebellum in awake rhesus monkey after 0.8 mins postinjection; format: ADME, organism-based, Macaca mulatta; conditions: in vivo, 48 s
[8] = Ratio of drug uptake in pons to cerebellum in awake rhesus monkey after 2.3 mins postinjection; format: ADME, organism-based, Macaca mulatta; conditions: in vivo, 138 s
[9] = Ratio of drug uptake in pons to cerebellum in awake rhesus monkey after 2.8 mins postinjection; format: ADME, organism-based, Macaca mulatta; conditions: in vivo, 168 s
[10] = Ratio of drug uptake in frontal lobe to cerebellum in awake rhesus monkey after 2.8 mins postinjection; format: ADME, organism-based, Macaca mulatta; conditions: in vivo, 168 s
[11] = Ratio of drug uptake in occipital lobe to cerebellum in awake rhesus monkey after 0.8 mins postinjection; format: ADME, organism-based, Macaca mulatta; conditions: in vivo, 48 s
[12] = Ratio of drug uptake in occipital lobe to cerebellum in awake rhesus monkey after 7.5 mins postinjection; format: ADME, organism-based, Macaca mulatta; conditions: in vivo, 0.125 h
[13] = Ratio of drug uptake in putamen to cerebellum in awake rhesus monkey after 25 mins postinjection; format: ADME, organism-based, Macaca mulatta; conditions: in vivo
[14] = target: Sodium-dependent serotonin transporter (Homo sapiens, UniProt P31645); assay: Displacement of [3H](R,S)citalopram.HBr from human SERT transfected in human HEK293 cells; format: cell-based
Chain of Sodium-dependent serotonin transporter (P31645 whole entry): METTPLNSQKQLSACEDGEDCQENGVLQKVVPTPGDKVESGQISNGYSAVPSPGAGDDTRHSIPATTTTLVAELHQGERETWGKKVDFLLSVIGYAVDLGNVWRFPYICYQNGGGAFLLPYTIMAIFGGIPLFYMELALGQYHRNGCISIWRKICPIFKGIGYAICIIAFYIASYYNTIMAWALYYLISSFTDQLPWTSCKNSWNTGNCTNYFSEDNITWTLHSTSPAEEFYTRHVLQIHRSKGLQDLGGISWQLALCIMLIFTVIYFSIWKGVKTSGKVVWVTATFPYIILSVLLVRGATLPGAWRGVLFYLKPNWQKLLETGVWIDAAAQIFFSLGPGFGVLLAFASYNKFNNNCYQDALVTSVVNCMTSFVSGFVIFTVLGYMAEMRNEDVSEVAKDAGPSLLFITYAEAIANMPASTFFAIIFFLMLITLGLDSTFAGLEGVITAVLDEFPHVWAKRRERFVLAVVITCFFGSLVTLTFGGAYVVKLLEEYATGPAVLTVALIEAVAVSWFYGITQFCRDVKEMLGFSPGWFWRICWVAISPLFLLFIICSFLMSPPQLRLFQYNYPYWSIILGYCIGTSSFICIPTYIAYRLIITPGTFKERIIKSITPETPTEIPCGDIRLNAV

[15] = target: Sodium-dependent dopamine transporter (Homo sapiens, UniProt Q01959); assay: Displacement of [3H]RTI-55 from human DAT transfected in human HEK293 cells; format: cell-based
Chain of Sodium-dependent dopamine transporter (Q01959 whole entry): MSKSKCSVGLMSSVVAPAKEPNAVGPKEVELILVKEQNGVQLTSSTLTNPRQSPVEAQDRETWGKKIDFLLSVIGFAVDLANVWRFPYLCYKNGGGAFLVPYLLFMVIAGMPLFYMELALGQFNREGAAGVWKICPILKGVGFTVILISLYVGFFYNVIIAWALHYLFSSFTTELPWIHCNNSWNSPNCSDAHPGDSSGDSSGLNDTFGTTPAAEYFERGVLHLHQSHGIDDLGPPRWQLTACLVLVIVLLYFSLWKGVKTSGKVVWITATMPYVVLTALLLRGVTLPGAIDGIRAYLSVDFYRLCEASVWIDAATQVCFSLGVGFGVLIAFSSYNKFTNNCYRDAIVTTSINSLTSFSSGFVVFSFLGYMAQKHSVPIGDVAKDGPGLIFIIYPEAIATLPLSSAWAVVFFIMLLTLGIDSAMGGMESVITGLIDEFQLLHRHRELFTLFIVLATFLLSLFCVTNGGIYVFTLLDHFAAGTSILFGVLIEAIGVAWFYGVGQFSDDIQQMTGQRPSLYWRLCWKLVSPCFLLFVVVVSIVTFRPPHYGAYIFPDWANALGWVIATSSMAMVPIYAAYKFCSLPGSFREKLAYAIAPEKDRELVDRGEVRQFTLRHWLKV

[16] = Ratio of drug uptake in pons to cerebellum in awake rhesus monkey after 55 mins postinjection; format: ADME, organism-based, Macaca mulatta; conditions: in vivo
[17] = Ratio of drug uptake in pons to cerebellum in awake rhesus monkey after 105 mins postinjection; format: ADME, organism-based, Macaca mulatta; conditions: in vivo, 1.75 h
[18] = Ratio of drug uptake in thalamus to cerebellum in awake rhesus monkey after 115 mins postinjection; format: ADME, organism-based, Macaca mulatta; conditions: in vivo
[19] = Ratio of drug uptake in midbrain to cerebellum in awake rhesus monkey after 45 mins postinjection; format: ADME, organism-based, Macaca mulatta; conditions: in vivo, 0.75 h
[20] = Ratio of drug uptake in midbrain to cerebellum in awake rhesus monkey after 115 mins postinjection; format: ADME, organism-based, Macaca mulatta; conditions: in vivo
[21] = Drug uptake in awake rhesus monkey caudate after 0.8 mins postinjection; format: ADME, organism-based, Macaca mulatta, Caudate nucleus; conditions: in vivo, 48 s
[22] = Drug uptake in awake rhesus monkey putamen after 1.8 mins postinjection; format: ADME, organism-based, Macaca mulatta; conditions: in vivo, 0.03 h
[23] = Drug uptake in awake rhesus monkey putamen after 2.3 mins postinjection; format: ADME, organism-based, Macaca mulatta; conditions: in vivo, 138 s
[24] = Drug uptake in awake rhesus monkey thalamus after 0.3 mins postinjection; format: ADME, organism-based, Macaca mulatta; conditions: in vivo, 0.005 h
[25] = Drug uptake in awake rhesus monkey thalamus after 2.8 mins postinjection; format: ADME, organism-based, Macaca mulatta; conditions: in vivo, 168 s
[26] = Drug uptake in awake rhesus monkey midbrain after 1.3 mins postinjection; format: ADME, organism-based, Macaca mulatta; conditions: in vivo, 78 s
[27] = Drug uptake in awake rhesus monkey midbrain after 2.3 mins postinjection; format: ADME, organism-based, Macaca mulatta; conditions: in vivo, 138 s
[28] = Drug uptake in awake rhesus monkey cerebellum after 1.3 mins postinjection; format: ADME, organism-based, Macaca mulatta; conditions: in vivo, 78 s
[29] = Drug uptake in awake rhesus monkey frontal lobe after 1.3 mins postinjection; format: ADME, organism-based, Macaca mulatta; conditions: in vivo, 78 s
[30] = Drug uptake in awake rhesus monkey frontal lobe after 2.8 mins postinjection; format: ADME, organism-based, Macaca mulatta; conditions: in vivo, 168 s
[31] = Drug uptake in awake rhesus monkey occipital lobe after 2.8 mins postinjection; format: ADME, organism-based, Macaca mulatta; conditions: in vivo, 168 s
[32] = Ratio of drug uptake in caudate to cerebellum in awake rhesus monkey after 0.8 mins postinjection; format: ADME, organism-based, Macaca mulatta; conditions: in vivo, 48 s
[33] = Ratio of drug uptake in caudate to cerebellum in awake rhesus monkey after 2.8 mins postinjection; format: ADME, organism-based, Macaca mulatta; conditions: in vivo, 168 s
[34] = Drug uptake in anesthetized cynomolgus monkey brain occipital lobe after 182.5 mins postinjection; format: ADME, organism-based, Macaca fascicularis; conditions: in vivo
[35] = Drug uptake in anesthetized cynomolgus monkey brain frontal lobe after 202.5 mins postinjection; format: ADME, organism-based, Macaca fascicularis; conditions: in vivo, 3.375 h
[36] = Drug uptake in anesthetized cynomolgus monkey brain cerebellum after 187.5 mins postinjection; format: ADME, organism-based, Macaca fascicularis; conditions: in vivo, 3.125 h
[37] = Metabolic stability in anesthetized cynomolgus monkey plasma after 1 min postinjection; format: ADME, organism-based, Macaca fascicularis; conditions: read-out: Stability
[38] = Protein binding in anesthetized cynomolgus monkey plasma after 1 min postinjection; format: ADME, organism-based, Macaca fascicularis; conditions: read-out: PPB (converted)
[39] = Protein binding in anesthetized cynomolgus monkey plasma after 2 mins postinjection; format: ADME, organism-based, Macaca fascicularis; conditions: read-out: PPB (converted)
[40] = Protein binding in anesthetized cynomolgus monkey plasma after 15 mins postinjection; format: ADME, organism-based, Macaca fascicularis; conditions: read-out: PPB (converted)
[41] = Protein binding in anesthetized cynomolgus monkey plasma after 120 mins postinjection; format: ADME, organism-based, Macaca fascicularis; conditions: read-out: PPB (converted)
[42] = Protein binding in anesthetized cynomolgus monkey plasma after 180 mins postinjection; format: ADME, organism-based, Macaca fascicularis; conditions: read-out: PPB (converted)
[43] = Drug uptake in awake rhesus monkey brain frontal lobe after 2.25 mins postinjection; format: ADME, organism-based, Macaca mulatta; conditions: in vivo, 135 s
[44] = Drug uptake in awake rhesus monkey brain medulla after 1.25 mins postinjection; format: ADME, organism-based, Macaca mulatta; conditions: in vivo, 75 s
[45] = Drug uptake in awake rhesus monkey brain medulla after 17.5 mins postinjection; format: ADME, organism-based, Macaca mulatta; conditions: in vivo
[46] = Drug uptake in awake rhesus monkey brain pons after 2.75 mins postinjection; format: ADME, organism-based, Macaca mulatta; conditions: in vivo, 165 s
[47] = Drug uptake in awake rhesus monkey brain pons after 4.5 mins postinjection; format: ADME, organism-based, Macaca mulatta; conditions: in vivo, 0.075 h
[48] = Drug uptake in awake rhesus monkey brain pons after 13.5 mins postinjection; format: ADME, organism-based, Macaca mulatta; conditions: in vivo, 0.225 h
[49] = Drug uptake in awake rhesus monkey brain midbrain after 0.75 mins postinjection; format: ADME, organism-based, Macaca mulatta; conditions: in vivo, 45 s
[50] = Drug uptake in awake rhesus monkey brain midbrain after 13.5 mins postinjection; format: ADME, organism-based, Macaca mulatta; conditions: in vivo, 0.225 h
[51] = Ratio of drug uptake in caudate to cerebellum in awake rhesus monkey after 105 mins postinjection; format: ADME, organism-based, Macaca mulatta; conditions: in vivo, 1.75 h
[52] = Ratio of drug uptake in thalamus to cerebellum in awake rhesus monkey after 10.5 mins postinjection; format: ADME, organism-based, Macaca mulatta; conditions: in vivo, 0.175 h
[53] = Ratio of drug uptake in thalamus to cerebellum in awake rhesus monkey after 35 mins postinjection; format: ADME, organism-based, Macaca mulatta; conditions: in vivo
[54] = Drug uptake in awake rhesus monkey brain putamen after 115 mins postinjection; format: ADME, organism-based, Macaca mulatta; conditions: in vivo
[55] = Drug uptake in awake rhesus monkey brain caudate after 1.25 mins postinjection; format: ADME, organism-based, Macaca mulatta, Caudate nucleus; conditions: in vivo, 75 s
[56] = Drug uptake in awake rhesus monkey brain caudate after 2.25 mins postinjection; format: ADME, organism-based, Macaca mulatta, Caudate nucleus; conditions: in vivo, 135 s
[57] = Drug uptake in awake rhesus monkey brain thalamus after 1.25 mins postinjection; format: ADME, organism-based, Macaca mulatta; conditions: in vivo, 75 s
[58] = Ratio of drug uptake in medulla to cerebellum in awake rhesus monkey after 25 mins postinjection; format: ADME, organism-based, Macaca mulatta; conditions: in vivo
[59] = Ratio of drug uptake in medulla to cerebellum in awake rhesus monkey after 45 mins postinjection; format: ADME, organism-based, Macaca mulatta; conditions: in vivo, 0.75 h
[60] = Ratio of drug uptake in frontal lobe to cerebellum in awake rhesus monkey after 55 mins postinjection; format: ADME, organism-based, Macaca mulatta; conditions: in vivo
[61] = Ratio of drug uptake in frontal lobe to cerebellum in awake rhesus monkey after 75 mins postinjection; format: ADME, organism-based, Macaca mulatta; conditions: in vivo, 1.25 h
[62] = Drug uptake in awake rhesus monkey brain frontal lobe after 1.25 mins postinjection; format: ADME, organism-based, Macaca mulatta; conditions: in vivo, 75 s
[63] = Ratio of drug uptake in midbrain to cerebellum in awake rhesus monkey after 105 mins postinjection; format: ADME, organism-based, Macaca mulatta; conditions: in vivo, 1.75 h

O=C(OCC[18F])C1C2CCC(CC1c1ccc(/C=C\I)cc1)N2 (stereo not drawn)
Ratio [1]: 2.6
Ratio [2]: 2.7
Ratio [3]: 3.3
Drug uptake [4]: 2.71
Ratio [5]: 1.3
Ratio [6]: 0
Ratio [7]: 4.8
Ratio [8]: 0.9
Ratio [9]: 1
Ratio [10]: 0.9
Ratio [11]: 1.9
Ratio [12]: 1
Ratio [13]: 1.3
Ki [14]: 0.08 nM
Ki [15]: 13 nM
Ratio [16]: 1.3
Ratio [17]: 1.8
Ratio [18]: 2.6
Ratio [19]: 1.3
Ratio [20]: 2.5
Drug uptake [21]: 0
Drug uptake [22]: 0.31
Drug uptake [23]: 0.46
Drug uptake [24]: 0
Drug uptake [25]: 0.65
Drug uptake [26]: 0.05
Drug uptake [27]: 0.39
Drug uptake [28]: 0.06
Drug uptake [29]: 0.05
Drug uptake [30]: 0.47
Drug uptake [31]: 0.53
Ratio [32]: 0
Ratio [33]: 1

O=C(OCCC[18F])C1C2CCC(CC1c1cccc(/C=C\Br)c1)N2 (stereo not drawn)
Drug uptake [34]: 2.93
Drug uptake [35]: 2.23
Drug uptake [36]: 2.35

O=C(OCC[18F])C1C2CCC(CC1c1cccc(/C=C\I)c1)N2 (stereo not drawn)
remaining at 1 min [37]: 93%
fraction unbound at 1 min [38]: 0.942
fraction unbound at 2 min [39]: 0.944
fraction unbound at 0.25 h [40]: 0.932
fraction unbound at 2 h [41]: 0.934
fraction unbound at 3 h [42]: 0.915
Drug uptake [43]: 0.02
Drug uptake [44]: 0.01
Drug uptake [45]: 0.1
Drug uptake [46]: 0.02
Drug uptake [47]: 0.05
Drug uptake [48]: 0.08
Drug uptake [49]: 0
Drug uptake [50]: 0.09
Ratio [51]: 1.4
Ratio [52]: 1.4
Ratio [53]: 1.4
Drug uptake [54]: 0.13
Drug uptake [55]: 0.01
Drug uptake [56]: 0.03
Drug uptake [57]: 0.01
Ratio [58]: 1
Ratio [59]: 1
Ratio [60]: 1
Ratio [61]: 1.1
Drug uptake [62]: 0
Ratio [63]: 1.7
